Assay results reported in patent US20110212909A1, “Use of Ginsenoside Compound K in the Preparation of a Medicament for the Prevention and Treatment of Atherosclerosis” (priority 2008, published 2011).
Marks after values point to notes of the source that are not given here.

What was measured:
[1] = test system: macrophage-derived foam cells of rat abdominal cavity; experiment: Assay of amount of TC and CE in ox-LDL induced macrophage-derived foam cells; assay type: cell-based
Method: 1. Experiment animal: SD rats, male, 200-250 g, bought from the third Military Medical University Experiment Animal Center.
2. Reagents: RPMI 1640 culture medium free of phenol red bought from Invitrogen company; LDL (115 mg/mL) bought from Peking Union Medical College; total cholesterol kit and free cholesterol kit bought from Shanghai Mind Bioengineering Limited Company; ginsenoside compound K (hereinafter being called C-K for short. White powders, purity 99%), provided by Kunming Nuowei Jinshen Bioengineering limited company supply (batch number: NTGA070521, details see China invention patent 200710066011. X “a method of preparing rare ginsenoside compound K by streptomycete fermentation of Sanchi saponins”).
LDL was placed into PBS comprising 10 μM Cu^2+, dialysed at 37° C. for 12 h, then was placed into PBS comprising 0.01% EDTA, and dialysed at 4° C. for 24 hours before stopping oxidization, then was subjected to filtration sterilization, and stored for use.
4. Culture of macrophage and establishment of foam cells model (available literature: Jia Yi, Li Xiaohui, Xing Mao, Hei Xuefeng, Liu Ya, He Cuiyao. Studies on affect of various combinations of 3 sorts of monomers in total panax notoginsenosides on formation of mouse macrophage-derived foam cells. Journal of China Pharmacy, 2008, 19 (2), 881-883.)
each rat were intraperitoneally injected with 2 mL RPMI 1640 culture solution free of serum and phenol red, and it was sacrificed by cervical dislocation after 20 minutes, and was soaked in 75% ethanol for 10 minutes, then rat's belly was cut open, and fluids in abdominal cavity were collected, and centrifugated at 750 r/min for 5 minutes, and then cells were collected, and cells concentrations were adjusted to […] by using RPMI 1640 culture solution which were free of phenol red and comprised 10% Fetal Calf Serum. 10 pieces of 6 wells plate was added 1 mL cells suspension per well, and was placed into an incubator of 5% CO2 at 37 °C, and cultured for two hours, then supernatant was discarded, and nonadhesive cells was washed by using PBS. Original culture medium was discarded. Culture was carried out for 48 hours after adding 5 mL culture medium comprising 20 mg/L ox-LDL, and thereby foam cells were formed.
[…] were divided into ox-LDL model group, pyrrolidine dithiocarbamate (PDTC) (drugs source: Sigma), control group and C-K interference group. Each group had 5 pieces of plates. […]
Culture solution was aspirated, and lipid in foam cells was extracted by Folch method (reference: Folch J et al, A simple method for the isolation and purification of total lipides from animal tissues. J Biol Chem, 1957, 226 (1): 497-509), according to direction for use of kit.
Data was expressed as x±s, and variance analysis was carried out between groups by SPSS 13.0 software.

CD36 mRNA = experiment: Real-time quantitative PCR of CD36 mRNA in foam cells; assay type: cell-based; details: 25 μM, rat foam cells
Method: FIG. 1 provides effects of a ginsenoside compound K (C-K, 25 μM) and pyrrolidine dithiocarbamate (PDTC, 25 μM) on the foam cell CD36 mRNA expression. a: P<0.05, vs foam cell group; b: P<0.05, vs PDTC. PDTC (25 μM) C-K (25 μM) (n=5).
(1) Material and reagents (the same as Example 2).
(§1) (2) real-time quantitative PCR analysis (a reference method: Zhang Yiguan, Li Xiaohui, Fan Jishan, Zhang Haigang, Li Shuhui, Liao Wenqiang, Pang Yan, Jia Yi. Total panax notoginsenosides suppress atherosclerosis formation in rats by means of antiinflammatory and blood fat regulating action. Progress in Modern Biomedicine. 2007, 27(11): 1601-1607).
(§2) Data was expressed as x±s, variance analysis were carried out between groups by SPSS 13.0 software.

Kunming mice = experiment: Primary survey for toxicity in mice (gavage, 14 days); assay type: in vivo
Method: 40 Kunming mice (weight 18-22 g) were randomly divided into blank group of 20 mice, and ginsenoside compound K group of 20 mice, wherein male and female mice were fifty-fifty in each group. Fasting was carried out before trial for 16 h, allowing mice to freely drink water. Each mouse in drug group was gavaged with ginsenoside compound K (bought from) suspension according to a dose of 400 mg/kg, and blank group was gavaged equivalent amount of distilled water, with administration carried out once a day. Observation was carried out for 14 days after administration, wherein mice were weighted and animal responses were observed each day. The mice were weighted on fourteenth day of the trial, then were sacrificed and dissected, and tissue change of mice's major organs such as heart, liver, spleen, lung, and kidney were observed.
There was no phenomena such as abnormal crying, tremor, convulsion, dyskinesias, salivation, lacrimation, nose running, respiration difficulty, rapid heartbeat or slow heartbeat, diarrhea, constipation, intestinal tympanites in drug group mice; mice's hair was glossy; No mouse died in 14 days of administration.

perilipin mRNA = experiment: Real-time quantitative PCR of perilipin mRNA in foam cells; assay type: cell-based; details: 25 μM, rat foam cells
Method: FIG. 2 provides effects of a ginsenoside compound K (C-K, 25 μM) and pyrrolidine dithiocarbamate (PDTC, 25 μM) on the foam cell perilipin mRNA expression.
a: P<0.05, vs. foam cells group. PDTC (25 μM) C-K (25 μM) (n=5).
(§3) (1) Material and reagents (the same as Examples 2).
as §1, with “27 (11):” for “27(11):”
as §2

LXRα mRNA = experiment: Real-time quantitative PCR of LXRα mRNA in foam cells; assay type: cell-based; details: 25 μM, rat foam cells
Method: FIG. 5 provides effects of a ginsenoside compound K (C-K, 25 μM) and pyrrolidine dithiocarbamate (PDTC, 25 μM) on the foam cell LXRα mRNA expression. a: P<0.05, vs foam cell group. PDTC (25 μM) C-K (25 μM) (n=5).
as §3
as §1, with “27 (11):” for “27(11):”
as §2

perilipin protein = experiment: Protein expression of perilipin in foam cells; assay type: cell-based; details: 25 μM, rat foam cells
Method: FIG. 3 provides effects of a ginsenoside compound K (C-K, 25 μM) and pyrrolidine dithiocarbamate (PDTC, 25 μM) on the protein expression of perilipin in foam cell. a: P<0.01, vs foam cell group PDTC (25 μM) C-K (25 μM) (n=5).
as §3, §2

In the case of `CC(C)=CCC[C@](C)(OC1OC(CO)C(O)C(O)C1O)C1CC[C@]2(C)C1[C@H](O)CC1[C@@]3(C)CC[C@H](O)C(C)(C)C3CC[C@]12C` (stereo partly drawn) [C-K, 20-O-β-D-glucopyranosyl 20-(S)-protopanaxadiol], the “TC and CE amount in foam cells compared with model group” value ([1]; 25 nM as printed in text) is reported as “significantly lowered”, the “CE in foam cells” value ([1]; 25 μM, 48 hours, rat foam cells, x ± s, n = 5, ox-LDL model group 15.24 ± 2.38) is reported as 28.12 ± 3.12^a and the “CE/TC in foam cells” value ([1]; 25 μM, 48 hours, rat foam cells, x ± s, n = 5, ox-LDL model group 59.56 ± 2.96) is reported as 47.01 ± 3.80^a %. The “TC in foam cells” value ([1]; 25 μM, 48 hours, rat foam cells, x ± s, n = 5, ox-LDL model group 87.20 ± 2.19) was 59.72 ± 2.38^a, the “change of CD36 mRNA expression in foam cells compared with model group” value (CD36 mRNA) was “not obvious” and the “mice's response to acute toxicity” value (Kunming mice; Kunming mice, 400 mg/kg gavage) was “not obvious”. The “time until signs after gavage (eye closed, lying down, reduced autonomic activities, appetite descent) restored normal” value (Kunming mice; Kunming mice, 400 mg/kg gavage) was no more than 2 h, the “death of mice in 14 days of administration” value (Kunming mice; Kunming mice, 400 mg/kg gavage once a day, 14 days) was “No mouse died” and the “organs observed by naked eye after dissection” value (Kunming mice; mouse, in vivo, 400 mg/kg) was “no abnormality in each organ”. The “expression of perilipin mRNA in foam cells compared with model group” value (perilipin mRNA) was “significantly down-regulated”, the “expression of LXRα mRNA in foam cells compared with model group” value (LXRα mRNA) was “significantly up-regulated” and the “expression of perilipin proteins in foam cells compared with model group” value (perilipin protein) was “significantly down-regulated”.
